pIC50: −log10 of the molar value. Values joined by “and” are separate entries in the source; they are usually repeats but may differ in a detail not shown here. Equal entries are not always repeated.
How the values were obtained:
[1] = target: Chromo domain-containing protein 1 (Saccharomyces cerevisiae (strain ATCC 204508 / S288c) (Baker's yeast), UniProt P32657); test: ScCHD-1 Enzyme Inhibition Assay; type: functional
Histidine--tRNA ligase = target: T1, Histidine--tRNA ligase (Leishmania infantum, UniProt A4I591); test: Leishmania infantum Histidine tRNA synthetase (LdHisRS); type: functional
T1 sequence (A4I591 whole entry): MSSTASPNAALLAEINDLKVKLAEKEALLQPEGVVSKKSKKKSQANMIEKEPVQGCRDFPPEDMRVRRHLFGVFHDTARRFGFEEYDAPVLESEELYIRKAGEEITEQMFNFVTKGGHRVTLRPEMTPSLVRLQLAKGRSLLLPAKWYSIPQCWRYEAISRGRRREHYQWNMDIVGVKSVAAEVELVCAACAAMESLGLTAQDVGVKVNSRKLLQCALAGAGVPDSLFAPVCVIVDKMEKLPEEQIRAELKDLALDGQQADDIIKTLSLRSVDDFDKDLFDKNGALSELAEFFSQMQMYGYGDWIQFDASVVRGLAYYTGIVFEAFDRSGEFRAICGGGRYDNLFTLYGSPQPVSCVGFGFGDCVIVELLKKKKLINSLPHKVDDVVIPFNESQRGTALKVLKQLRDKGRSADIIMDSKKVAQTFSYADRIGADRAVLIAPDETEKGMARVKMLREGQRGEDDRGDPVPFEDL

Lysine--tRNA ligase = Lysine--tRNA ligase (Plasmodium falciparum (isolate 3D7), UniProt Q8IDJ8); test: Pf-KRS-1 (Lysyl-RNA Synthetase-1, KRS-1, cytosolic KRS) from Plasmodium falciparum. Inhibitor assay, 384 well plate, luminescence read.; type: functional
Lysine--tRNA ligase, sequence (Q8IDJ8 whole entry): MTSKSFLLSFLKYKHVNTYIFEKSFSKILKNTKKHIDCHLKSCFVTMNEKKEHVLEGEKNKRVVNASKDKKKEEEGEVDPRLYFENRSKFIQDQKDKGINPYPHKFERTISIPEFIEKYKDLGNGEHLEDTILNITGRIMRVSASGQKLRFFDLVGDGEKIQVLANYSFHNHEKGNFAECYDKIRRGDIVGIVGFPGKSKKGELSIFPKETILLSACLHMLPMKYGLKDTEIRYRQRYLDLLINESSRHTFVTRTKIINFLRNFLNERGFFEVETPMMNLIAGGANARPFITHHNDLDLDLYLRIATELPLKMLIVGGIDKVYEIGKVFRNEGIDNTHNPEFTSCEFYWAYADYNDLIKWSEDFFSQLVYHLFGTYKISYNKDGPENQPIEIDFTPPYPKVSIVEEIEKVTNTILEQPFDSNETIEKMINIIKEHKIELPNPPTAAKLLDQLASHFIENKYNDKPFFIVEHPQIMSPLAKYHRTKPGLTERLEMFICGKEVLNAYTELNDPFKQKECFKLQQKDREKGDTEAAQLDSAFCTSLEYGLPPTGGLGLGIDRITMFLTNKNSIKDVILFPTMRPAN

[2] = target: T2, Ubiquitin-activating enzyme e1, putative (Leishmania donovani (strain BPK282A1), UniProt E9BSI1); test: Leishmania donovani Ubiquitin Activating Enzyme (LdE1); type: functional
T2 sequence (E9BSI1 whole entry): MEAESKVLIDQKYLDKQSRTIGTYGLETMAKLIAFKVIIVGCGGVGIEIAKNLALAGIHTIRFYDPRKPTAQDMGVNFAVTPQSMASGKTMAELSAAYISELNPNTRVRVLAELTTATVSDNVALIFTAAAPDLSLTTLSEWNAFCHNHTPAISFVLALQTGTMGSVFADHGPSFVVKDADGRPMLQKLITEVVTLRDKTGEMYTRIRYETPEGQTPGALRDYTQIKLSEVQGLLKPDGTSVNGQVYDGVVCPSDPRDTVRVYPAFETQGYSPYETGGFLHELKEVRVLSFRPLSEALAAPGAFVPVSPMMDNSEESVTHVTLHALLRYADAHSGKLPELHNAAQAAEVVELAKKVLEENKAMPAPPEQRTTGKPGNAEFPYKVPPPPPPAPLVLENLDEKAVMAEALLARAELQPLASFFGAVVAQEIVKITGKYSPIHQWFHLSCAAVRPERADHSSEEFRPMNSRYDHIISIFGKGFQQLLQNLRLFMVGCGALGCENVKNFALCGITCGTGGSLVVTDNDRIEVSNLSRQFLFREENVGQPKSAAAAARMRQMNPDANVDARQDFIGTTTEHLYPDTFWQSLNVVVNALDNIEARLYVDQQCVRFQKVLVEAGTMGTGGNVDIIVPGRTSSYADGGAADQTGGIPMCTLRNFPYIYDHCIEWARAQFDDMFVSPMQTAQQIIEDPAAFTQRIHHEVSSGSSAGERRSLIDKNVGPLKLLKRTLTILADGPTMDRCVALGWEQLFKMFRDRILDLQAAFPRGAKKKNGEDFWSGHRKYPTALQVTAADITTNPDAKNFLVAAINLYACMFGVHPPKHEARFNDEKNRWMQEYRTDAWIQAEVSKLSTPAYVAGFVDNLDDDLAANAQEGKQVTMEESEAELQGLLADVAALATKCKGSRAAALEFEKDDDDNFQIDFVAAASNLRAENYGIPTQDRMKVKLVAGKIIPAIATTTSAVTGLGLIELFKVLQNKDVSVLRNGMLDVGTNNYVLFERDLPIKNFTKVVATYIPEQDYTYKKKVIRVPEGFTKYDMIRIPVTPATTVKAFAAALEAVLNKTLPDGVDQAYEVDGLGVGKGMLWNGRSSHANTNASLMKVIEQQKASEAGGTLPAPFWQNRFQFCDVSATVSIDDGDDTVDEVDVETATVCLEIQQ

Plasmodium falciparum = test: Plasmodium falciparum sporozoite viability assay; type: functional, organism-based; conditions: Plasmodium falciparum

Chromo domain-containing protein 1, sequence (P32657 whole entry, the tested form may be a part): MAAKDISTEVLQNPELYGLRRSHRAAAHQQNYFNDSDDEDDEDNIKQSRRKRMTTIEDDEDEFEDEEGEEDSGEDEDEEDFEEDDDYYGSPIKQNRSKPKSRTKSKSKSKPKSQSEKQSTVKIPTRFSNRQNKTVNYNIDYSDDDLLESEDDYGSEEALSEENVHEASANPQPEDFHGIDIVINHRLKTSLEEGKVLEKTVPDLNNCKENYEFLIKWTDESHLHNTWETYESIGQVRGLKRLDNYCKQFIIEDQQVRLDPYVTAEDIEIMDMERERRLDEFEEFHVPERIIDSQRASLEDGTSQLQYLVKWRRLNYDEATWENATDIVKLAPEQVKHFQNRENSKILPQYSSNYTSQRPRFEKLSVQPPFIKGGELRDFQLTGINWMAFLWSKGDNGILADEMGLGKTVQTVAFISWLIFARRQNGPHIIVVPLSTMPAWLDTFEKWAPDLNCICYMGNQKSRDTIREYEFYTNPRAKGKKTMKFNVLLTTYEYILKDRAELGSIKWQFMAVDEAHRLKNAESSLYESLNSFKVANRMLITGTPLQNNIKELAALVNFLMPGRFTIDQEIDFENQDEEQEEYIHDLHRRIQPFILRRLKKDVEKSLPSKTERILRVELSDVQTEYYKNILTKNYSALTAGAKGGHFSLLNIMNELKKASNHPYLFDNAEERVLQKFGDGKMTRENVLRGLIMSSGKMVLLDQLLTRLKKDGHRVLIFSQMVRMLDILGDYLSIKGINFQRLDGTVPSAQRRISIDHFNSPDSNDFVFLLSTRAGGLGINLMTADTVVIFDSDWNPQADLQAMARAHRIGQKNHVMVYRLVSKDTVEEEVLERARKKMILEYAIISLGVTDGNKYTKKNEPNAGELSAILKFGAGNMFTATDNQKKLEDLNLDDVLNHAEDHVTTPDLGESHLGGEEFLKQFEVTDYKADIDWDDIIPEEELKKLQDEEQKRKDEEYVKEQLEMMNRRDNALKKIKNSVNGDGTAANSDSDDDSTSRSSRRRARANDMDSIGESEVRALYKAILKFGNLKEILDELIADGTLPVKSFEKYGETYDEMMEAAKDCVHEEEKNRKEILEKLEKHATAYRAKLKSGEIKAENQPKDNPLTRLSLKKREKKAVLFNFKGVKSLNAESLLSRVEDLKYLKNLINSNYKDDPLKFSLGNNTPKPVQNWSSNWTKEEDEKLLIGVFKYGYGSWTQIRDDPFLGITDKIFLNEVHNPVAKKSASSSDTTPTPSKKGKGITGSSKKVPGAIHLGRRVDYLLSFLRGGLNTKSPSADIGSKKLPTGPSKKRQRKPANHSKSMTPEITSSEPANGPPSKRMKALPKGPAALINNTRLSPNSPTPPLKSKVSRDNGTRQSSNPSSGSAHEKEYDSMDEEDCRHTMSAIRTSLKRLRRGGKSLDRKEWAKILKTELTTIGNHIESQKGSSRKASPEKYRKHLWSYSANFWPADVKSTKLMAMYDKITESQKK

Row | pIC50 [1] | Compound | pIC50 (Histidine--tRNA ligase) | pIC50 [2] | also measured
1 | 4.57 and 4.62 | COc1ccc(C2=C(C)C(N3CCc4ccccc4C3)=NS2(=O)=O)cc1 |  |  | 
2 | < 4.53 | COC(=O)N1CCc2ccc(NC(=O)c3cn(C)nn3)cc2C1 |  |  | 
3 | < 4.53 | O=C(Cn1c(=O)nc2n1C(=O)N(c1ccccc1)C2)Nc1ccccc1 |  |  | 
4 | < 4.53 | CC(C)(C)n1ncc2c1NC(=O)CC2c1ccccc1 (stereo not drawn) |  |  | 
5 | < 4.53 | CN1CCN(c2ncc3c(=O)n(-c4cccc(F)c4)c(=O)[nH]c3n2)CC1 |  |  | 
6 | < 4.53 | CCc1ccc(-n2c(=O)[nH]c3nc(N4CCSCC4)ncc3c2=O)cc1 |  |  | 
7 | < 4.53 | O=C(O)c1nnn(-c2ccc(OC(F)(F)F)cc2)c1-c1ccncc1 |  |  | 
8 | < 4.53 | O=C(COc1coc(CN2CCCCCC2)cc1=O)c1ccccc1 |  |  | 
9 | < 4.53 | CC(=O)c1cccc(NC(=O)Cn2cc(I)cn2)c1 |  |  | 
10 | < 4.53 | O=C(NCc1ccco1)[C@H]1C[C@H]2OCC[C@H]2N(C(=O)c2ccco2)C1 |  |  | 
11 | < 4.53 | CCc1ccc(NC(=O)N2C[C@H]3C[C@H](C(=O)NC)[C@@H](C2)O3)cc1 |  |  | 
12 | < 4.53 | Cn1ccnc1CN1CCC2(CC1)CN(CC1CC1)C(=O)CO2 |  |  | 
13 | < 4.53 | CCN(CC)CCNC(=O)c1cc(C(C)C)nc(N2CCCC2)n1 |  |  | 
14 | < 4.53 | Cc1nn(C)c(C)c1NC(=O)CCn1ncc2c(C)cccc21 |  |  | 
15 | < 4.53 | CCS(=O)(=O)Nc1ccn(Cc2cccc(Cl)c2)n1 |  |  | 
16 | < 4.53 | CCOc1ccc(N2CCCN=C2NC(=O)c2ccccc2C)cc1 |  |  | 
17 | < 4.53 | O=C(COCc1nc(-c2ccncc2)no1)N1CCCCCC1 |  |  | 
18 | < 4.53 | COCCNC(=O)C(C)n1cc(Br)cn1 (stereo not drawn) |  |  | 

Row | pIC50 [1] | Compound | pIC50 (Histidine--tRNA ligase) | pIC50 [2] | also measured
19 | < 4.53 | CCn1nccc1CNC(=O)C1CC1 |  |  | 
20 |  | CCCN(C(=O)c1ccncc1)c1nc2c(s1)CCc1c-2cnn1C | 4.69 and 4.77 | < 4.00 | pIC50 (Lysine--tRNA ligase): < 4.30
21 |  | COCCN(C(=O)c1ccccn1)c1nc2c(s1)CCc1c-2cnn1C | 5.04 and 4.96 | < 4.00 | pIC50 (Lysine--tRNA ligase): < 4.30; pIC50 (Plasmodium falciparum): 6.24
22 |  | CCCN(C(=O)c1cnccn1)c1nc2c(s1)CCc1c-2cnn1C | 4.22 and 4.14 | < 4.00 | 
23 |  | CCCN(C(=O)c1cnc(C)cn1)c1nc2c(s1)CCc1c-2cnn1C | 4.36 and 4.47 | < 4.00 | pIC50 (Lysine--tRNA ligase): < 4.30
24 |  | COCCN(C(=O)c1cnccn1)c1nc2c(s1)CCc1c-2cnn1C | < 4.00 | < 4.00 | 
25 |  | CCCN(C(=O)c1cccnc1)c1nc2c(s1)CCc1c-2cnn1C | 4.77 and 4.88 | < 4.00 | pIC50 (Lysine--tRNA ligase): < 4.30
26 |  | COCc1nc2cc(NCc3nc(C)cs3)ccc2o1 | 4.62 and 4.48 | < 4.00 | pIC50 (Lysine--tRNA ligase): < 4.30
27 |  | COCc1nc2cc(NCc3sc(C)nc3C)ccc2o1 | 4.82 and 4.72 | < 4.00 | pIC50 (Lysine--tRNA ligase): < 4.30
28 |  | COCc1nc2cc(NCc3scnc3C)ccc2o1 | 4.11 and 4.04 | < 4.00 | 
29 |  | COCc1nc2cc(NCc3ccc(CO)o3)ccc2o1 | 4.07 and < 4.00 | < 4.00 | 
30 |  | COCc1nc2cc(NCc3cc[nH]n3)ccc2o1 | < 4.00 | < 4.00 | 
31 | < 4.53 | CCNC(=O)N(C)Cc1ccc(SC)c(OC)c1 |  |  | 
32 |  | COCc1nc2cc(NCc3ccc(C)o3)ccc2o1 | 4.17 and 4.26 | < 4.00 | pIC50 (Lysine--tRNA ligase): < 4.30
33 | < 4.53 | N#Cc1cn(CC(=O)NC2CC2)c2ccc(Br)cc2c1=O |  |  | 
34 | < 4.53 and 4.59 | Cc1cc(NC(=O)Cn2cc(C#N)c(=O)c3cc(Br)ccc32)no1 |  |  | 
35 | < 4.53 | Cc1cnn(C2CN(CC(O)c3ccc(F)cc3)C2)c1 (stereo not drawn) |  |  | 

Row | Compound | pIC50 [1] | pIC50 (Histidine--tRNA ligase) | pIC50 [2] | also measured
36 | O=C1CSC(c2cccs2)c2cnn(C3CCCC3)c2N1 (stereo not drawn) | < 4.53 |  |  | 
37 | O=C1CSC(c2ccsc2)c2sccc2N1 (stereo not drawn) | < 4.53 |  |  | 
38 | NCC1(c2cccc(C(F)(F)F)c2)CCOCC1 | < 4.53 |  |  | 

From ChEMBL document CHEMBL3988442, “University of Dundee, Small-Polar-MMV Screening Library” (2021)
